# Laboratory results reported in PubChem BioAssay AID1353 (Sanford-Burnham Center for Chemical Genomics, 2008).
# Activity calls are given as the source filed them.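 Rule for the calls: active = ATP loss reduced by over 30% versus thapsigargin-only wells, at any thapsigargin dose tested; inactive = the rest.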
# Tested on: C17.2 differentiated neurons, thapsigargin death, ATPlite, 24 h
# Test: ER stress death protection in C17.2 cells – cell-based, differentiated mouse neural stem C17.2, ATP luminescence, SAR follow-up (AID 1353)
# Settings: at 25 µM; stronger effect = higher value
row,SMILES,survival
1,CC1(C)CC(=O)C2=C(C1)Nc1ccccc1NC2c1ccc(-c2ccccc2)cc1 (stereo not drawn),1% (inactive)
2,COc1ccc(C2CC(=O)C3=C(C2)Nc2ccccc2NC3c2cccc(C(F)(F)F)c2)cc1OC (stereo not drawn),5% (inactive)
3,CCOc1cccc(C2Nc3ccccc3NC3=C2C(=O)CC(c2ccc(OC)cc2)C3)c1 (stereo not drawn),1% (inactive)
4,COc1ccc(C2CC(=O)C3=C(C2)Nc2ccccc2NC3c2ccccc2C(F)(F)F)cc1OC (stereo not drawn),12% (inactive)
5,CCOc1cc(C2Nc3ccccc3NC3=C2C(=O)CC(c2ccc(OC)cc2)C3)cc(Cl)c1O (stereo not drawn),1% (inactive)
6,COc1ccc(C2CC(=O)C3=C(C2)Nc2ccccc2NC3c2cc(C)ccc2C)cc1 (stereo not drawn),2% (inactive)
7,COc1ccc(C2CC(=O)C3=C(C2)Nc2ccccc2NC3c2cccc(Oc3ccccc3)c2)cc1OC (stereo not drawn),50%
8,O=C1CC(c2ccccc2)CC2=C1C(c1c(F)cccc1Cl)Nc1ccccc1N2 (stereo not drawn),10% (inactive)
9,COc1ccc(C2CC(=O)C3=C(C2)Nc2ccccc2NC3c2cccc(Br)c2)cc1OC (stereo not drawn),7% (inactive)
10,CCCOc1ccc(C2Nc3ccccc3NC3=C2C(=O)CC(c2ccc(OC)c(OC)c2)C3)cc1 (stereo not drawn),20% (inactive)
11,CSc1ccc(C2Nc3ccccc3NC3=C2C(=O)CC(c2ccccc2)C3)cc1 (stereo not drawn),2% (inactive)

# Same assay, conditions: measured here: survival at thapsigargin 5 uM; at 25 µM; stronger effect = higher value
row,SMILES,survival [%]
1,CC1(C)CC(=O)C2=C(C1)Nc1ccccc1NC2c1ccc(-c2ccccc2)cc1 (stereo not drawn),45
2,COc1ccc(C2CC(=O)C3=C(C2)Nc2ccccc2NC3c2cccc(C(F)(F)F)c2)cc1OC (stereo not drawn),59
3,CCOc1cccc(C2Nc3ccccc3NC3=C2C(=O)CC(c2ccc(OC)cc2)C3)c1 (stereo not drawn),83
4,COc1ccc(C2CC(=O)C3=C(C2)Nc2ccccc2NC3c2ccccc2C(F)(F)F)cc1OC (stereo not drawn),55
5,CCOc1cc(C2Nc3ccccc3NC3=C2C(=O)CC(c2ccc(OC)cc2)C3)cc(Cl)c1O (stereo not drawn),79
6,COc1ccc(C2CC(=O)C3=C(C2)Nc2ccccc2NC3c2cc(C)ccc2C)cc1 (stereo not drawn),69
7,COc1ccc(C2CC(=O)C3=C(C2)Nc2ccccc2NC3c2cccc(Oc3ccccc3)c2)cc1OC (stereo not drawn),68
8,O=C1CC(c2ccccc2)CC2=C1C(c1c(F)cccc1Cl)Nc1ccccc1N2 (stereo not drawn),87
9,COc1ccc(C2CC(=O)C3=C(C2)Nc2ccccc2NC3c2cccc(Br)c2)cc1OC (stereo not drawn),67
10,CCCOc1ccc(C2Nc3ccccc3NC3=C2C(=O)CC(c2ccc(OC)c(OC)c2)C3)cc1 (stereo not drawn),62
11,CSc1ccc(C2Nc3ccccc3NC3=C2C(=O)CC(c2ccccc2)C3)cc1 (stereo not drawn),86

# Same assay, conditions: measured here: survival at thapsigargin 15 uM; at 25 µM; stronger effect = higher value
row,SMILES,survival [%]
1,CC1(C)CC(=O)C2=C(C1)Nc1ccccc1NC2c1ccc(-c2ccccc2)cc1 (stereo not drawn),0
2,COc1ccc(C2CC(=O)C3=C(C2)Nc2ccccc2NC3c2cccc(C(F)(F)F)c2)cc1OC (stereo not drawn),0
3,CCOc1cccc(C2Nc3ccccc3NC3=C2C(=O)CC(c2ccc(OC)cc2)C3)c1 (stereo not drawn),0
4,COc1ccc(C2CC(=O)C3=C(C2)Nc2ccccc2NC3c2ccccc2C(F)(F)F)cc1OC (stereo not drawn),1
5,CCOc1cc(C2Nc3ccccc3NC3=C2C(=O)CC(c2ccc(OC)cc2)C3)cc(Cl)c1O (stereo not drawn),0
6,COc1ccc(C2CC(=O)C3=C(C2)Nc2ccccc2NC3c2cc(C)ccc2C)cc1 (stereo not drawn),0
7,COc1ccc(C2CC(=O)C3=C(C2)Nc2ccccc2NC3c2cccc(Oc3ccccc3)c2)cc1OC (stereo not drawn),1
8,O=C1CC(c2ccccc2)CC2=C1C(c1c(F)cccc1Cl)Nc1ccccc1N2 (stereo not drawn),1
9,COc1ccc(C2CC(=O)C3=C(C2)Nc2ccccc2NC3c2cccc(Br)c2)cc1OC (stereo not drawn),0
10,CCCOc1ccc(C2Nc3ccccc3NC3=C2C(=O)CC(c2ccc(OC)c(OC)c2)C3)cc1 (stereo not drawn),1
11,CSc1ccc(C2Nc3ccccc3NC3=C2C(=O)CC(c2ccccc2)C3)cc1 (stereo not drawn),0
